# Data taken from patent US20160212997A1, “AGRICULTURAL CHEMICALS” (REDAG CROP PROTECTION LTD, priority 2013, published 2016).
# Like-named read-outs stand apart in the source and are kept apart here.
# Assays:
# Assay type in all cases: in vivo
# [1] = test system: red spider mites, Tetranychus urticae; test: Potter tower spray on red spider mites, knockdown and mortality; settings: for percentage control: Spider mites; for activity against spider mites compared with the reference compound: versus flupyradifurone or sulfoxaflor respectively, tables 1 and 3
# From the text: The compounds were screened for insecticidal efficacy against aphids, Myzus persicae, Cabbage moth, Mamestra brassicae, diamond black moths, Plutella xylostella, red spider mites, Tetranychus urticae, whitefly, Trialeurodes vaporariorum, in terms of knockdown and mortality.
# Myzus persicae, Cabbage moth, Mamestra brassicae, diamond back moths, Plutella xylostella, red spider mites, Tetranychus urticae, whitefly, Trialeurodes vaporariorum, were obtained from specified laboratory cultures. Mixed sex and age aphids and mites, moth larvae and whitefly scale infested leaves were used in the experiments. Environmental conditions were closely monitored and recorded and were within the optimal range of the target species.
# The compounds were screened at a range of five concentrations, diluted in DMSO. Some of the compounds were screened against aphids, whitefly and red spider mites and other compounds were screened against cabbage moth, and diamond black moths. A carrier only and an untreated control will also be conducted. Treatments were applied directly onto the insects within Petri dishes, using a potter tower.
# Twenty mites and ten aphids, scales and moth larvae were placed within a Petri dish, lined with a suitable leaf disc on a damp cotton wool pad. Scales were already on leaves. The Petri dishes were then sprayed using a potter tower. The number of knocked down and anthropods were assessed at 24 and 48 hours post treatment. Five replicates were be performed for each treatment, for each species.
# aphids, Myzus persicae = test: Potter tower spray on aphids, knockdown and mortality; settings: Aphids; for pest or weed control at 0.1 % strength: Myzus persicae, 0.1 % w/v, read-out: Average of % corrected affected
# Summary of the method: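 Ten aphids (mixed sex and age) per Petri dish on a leaf disc were sprayed by Potter tower with compounds at five concentrations in DMSO. Knockdown and mortality were scored at 24 and 48 hours, five replicates per treatment, alongside carrier-only and untreated controls.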
# [2] = test system: caterpillars, a mixture of Mamestra brassicae and Lacanobia oleracea; test: Potter tower spray on caterpillars, knockdown and mortality; settings: Caterpillars, read-out: Average of % corrected affected; for pest or weed control at 0.1 % strength: 0.1 % w/v; for pest or weed control at 0.00625 % strength: 0.00625 % w/v; for pest or weed control at 0.0125 % strength: 0.0125 % w/v; for pest or weed control at 0.025 % strength: 0.025 % w/v; for pest or weed control at 0.05 % strength: 0.05 % w/v
# Summary of the method: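 Mixed Mamestra brassicae and Lacanobia oleracea larvae (ten per dish, on leaf disc over damp cotton wool) sprayed directly with a Potter tower at five concentrations in DMSO containing 1% v/v Tween 20, alongside carrier-only and untreated controls. Knockdown and mortality scored at 24 and 48 h post treatment; five replicates per treatment.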
# [3] = 24 h, 24 hours post application
# [4] = 48 h, 48 hours post application
Structure (SMILES),"percentage control ([1]; 12.5 g/ha, 24 h)","percentage control ([1]; 12.5 g/ha, 48 h)","percentage control ([1]; 25 g/ha, 24 h)","percentage control ([1]; 25 g/ha, 48 h)","percentage control ([1]; 50 g/ha, 24 h)","percentage control ([1]; 50 g/ha, 48 h)","percentage control ([1]; 100 g/ha, 24 h)","percentage control ([1]; 100 g/ha, 48 h)","percentage control ([1]; 200 g/ha, 24 h)","percentage control ([1]; 200 g/ha, 48 h)",activity against spider mites compared with the reference compound [1],"percentage control (aphids, Myzus persicae; 12.5 g/ha, 24 h)","percentage control (aphids, Myzus persicae; 12.5 g/ha, 48 h)","percentage control (aphids, Myzus persicae; 25 g/ha, 24 h)","percentage control (aphids, Myzus persicae; 25 g/ha, 48 h)","percentage control (aphids, Myzus persicae; 50 g/ha, 24 h)","percentage control (aphids, Myzus persicae; 50 g/ha, 48 h)","percentage control (aphids, Myzus persicae; 100 g/ha, 24 h)","percentage control (aphids, Myzus persicae; 100 g/ha, 48 h)","percentage control (aphids, Myzus persicae; 200 g/ha, 24 h)",also measured
"COC(=O)N=S(C)(=O)C(C)c1ccc(C(F)(F)F)nc1 (stereo not shown) [Compound 13, Methyl N-[methyl-oxo-[1-[6-(trifluoromethyl)-3-pyridyl]ethyl]-λ^6-sulfanylidene]carbamate]",D (A percentage control of from 20 to 39 is indicated by the letter D),B (A percentage control of from 60 to 79 is indicated by the letter B),D (A percentage control of from 20 to 39 is indicated by the letter D),C (A percentage control of from 40 to 59 is indicated by the letter C),D (A percentage control of from 20 to 39 is indicated by the letter D),B (A percentage control of from 60 to 79 is indicated by the letter B),D (A percentage control of from 20 to 39 is indicated by the letter D),B (A percentage control of from 60 to 79 is indicated by the letter B),D (A percentage control of from 20 to 39 is indicated by the letter D),B (A percentage control of from 60 to 79 is indicated by the letter B),more active than the reference compound,E (A percentage control of from 1 to 19 is indicated by the letter E),D (A percentage control of from 20 to 39 is indicated by the letter D),E (A percentage control of from 1 to 19 is indicated by the letter E),D (A percentage control of from 20 to 39 is indicated by the letter D),E (A percentage control of from 1 to 19 is indicated by the letter E),D (A percentage control of from 20 to 39 is indicated by the letter D),E (A percentage control of from 1 to 19 is indicated by the letter E),E (A percentage control of from 1 to 19 is indicated by the letter E),D (A percentage control of from 20 to 39 is indicated by the letter D),"percentage control (aphids, Myzus persicae; 200 g/ha, 48 h): C (A percentage control of from 40 to 59 is indicated by the letter C); pest or weed control at 0.1 % strength (aphids, Myzus persicae; [3]): 20 to 39%; pest or weed control at 0.1 % strength (aphids, Myzus persicae; [4]): 20 to 39%; pest or weed control at 0.1 % strength [2, 3]: 1 to 19%; pest or weed control at 0.00625 % strength [2, 4]: 1 to 19%; pest or weed control at 0.0125 % strength [2, 4]: 1 to 19%; pest or weed control at 0.025 % strength [2, 4]: 1 to 19%; pest or weed control at 0.05 % strength [2, 4]: 1 to 19%; pest or weed control at 0.1 % strength [2, 4]: 20 to 39%"
"CC(c1ccc(C(F)(F)F)nc1)S(C)(=O)=NS(C)(=O)=O (stereo not shown) [Compound 14, N-[methyl-oxo-[1-[6-(trifluoromethyl)-3-pyridyl]ethyl]-λ^6-sulfanylidene]methane-sulfonamide]",D (A percentage control of from 20 to 39 is indicated by the letter D),C (A percentage control of from 40 to 59 is indicated by the letter C),C (A percentage control of from 40 to 59 is indicated by the letter C),C (A percentage control of from 40 to 59 is indicated by the letter C),D (A percentage control of from 20 to 39 is indicated by the letter D),C (A percentage control of from 40 to 59 is indicated by the letter C),C (A percentage control of from 40 to 59 is indicated by the letter C),B (A percentage control of from 60 to 79 is indicated by the letter B),B (A percentage control of from 60 to 79 is indicated by the letter B),B (A percentage control of from 60 to 79 is indicated by the letter B),more active than the reference compound,E (A percentage control of from 1 to 19 is indicated by the letter E),D (A percentage control of from 20 to 39 is indicated by the letter D),E (A percentage control of from 1 to 19 is indicated by the letter E),E (A percentage control of from 1 to 19 is indicated by the letter E),E (A percentage control of from 1 to 19 is indicated by the letter E),D (A percentage control of from 20 to 39 is indicated by the letter D),E (A percentage control of from 1 to 19 is indicated by the letter E),D (A percentage control of from 20 to 39 is indicated by the letter D),E (A percentage control of from 1 to 19 is indicated by the letter E),"percentage control (aphids, Myzus persicae; 200 g/ha, 48 h): D (A percentage control of from 20 to 39 is indicated by the letter D); pest or weed control at 0.1 % strength (aphids, Myzus persicae; [3]): 20 to 39%; pest or weed control at 0.1 % strength (aphids, Myzus persicae; [4]): 20 to 39%; pest or weed control at 0.1 % strength [2, 3]: 1 to 19%; pest or weed control at 0.00625 % strength [2, 4]: 1 to 19%; pest or weed control at 0.0125 % strength [2, 4]: 1 to 19%; pest or weed control at 0.025 % strength [2, 4]: 1 to 19%; pest or weed control at 0.05 % strength [2, 4]: 1 to 19%; pest or weed control at 0.1 % strength [2, 4]: 1 to 19%"
